A short description of this data set: solvent given as SMILES.

With `FC(F)(F)c1cc2n(n1)[B-]1(c3ccccc3-c3ccccc31)[n+]1ccc3ccccc3c1-2`, the emission maximum runs as follows: (in C1CCCCC1) 490 nm; (in Cc1ccccc1) 538 nm; (in ClCCl) 564 nm.

For `F[B-]1(F)N2C=CN=CC2=[N+]2[N+]1=Cc1c(-c3ccccc3)cc(-c3cccs3)n1[B-]2(F)F`, the emission maximum (in ClCCl) came to 566 nm. As for `Cc1ccc(-c2ccc(/C=C/c3ccc([N+](=O)[O-])cc3)cn2)nc1`, the emission maximum (in CC#N) came to 551 nm. For the molecule `CC/[NH+]=c1\cc2oc3cc(NCCC(=O)NC(C(=O)OC)c4ccccc4)c4ccccc4c3nc-2cc1C` (centres undefined), the emission maximum is recorded as 644 nm (in CCO) and 657 nm (in O). As for `CCCCCCCCCCCCNc1cccc2[n+]1[B-](F)(F)n1c(c3cccc4cccc1c43)=N2`, the emission maximum is reported as 523 nm (in C1CCOC1); 519 nm (in CC#N); 509 nm (in CCCCCC); 529 nm (in Cc1ccccc1); 522 nm (in ClCCl).

For the molecule `Nc1ncnc2c1c(C#Cc1ccc3ccccc3c1)cn2[C@H]1C[C@H](O)[C@@H](CO)O1`, the emission maximum is 400 nm (in CC#N); 371 nm (in CCO); 383 nm (in CCOC(C)=O); 377 nm (in CO); 374 nm (in ClC(Cl)Cl). Take `O=C1c2ccccc2-c2nc3c(F)c(F)c(F)c(F)c3n21`: the emission maximum (in ClCCl) is recorded as 485 nm. In turn, `c1ccc2c(c1)oc1nc3oc4ccc(-n5c6ccccc6c6ccccc65)cc4c3cc12` had an emission maximum (in ClC(Cl)Cl) of 448 nm. `c1ccc2c(c1)Sc1ccccc1N2c1ccc2c(c1)C1(CCCC1)c1cc(N3c4ccccc4Sc4ccccc43)ccc1-2` registered an emission maximum (in Cc1ccccc1) of 491 nm. In the case of `c1ccc(C(=C(c2ccccc2)c2ccc(-c3ccc(-c4nc5c(-c6ccc(-c7ccc(C(=C(c8ccccc8)c8ccccc8)c8ccccc8)cc7)cc6)sc(-c6ccc(-c7ccc(C(=C(c8ccccc8)c8ccccc8)c8ccccc8)cc7)cc6)c5nc4-c4ccc(-c5ccc(C(=C(c6ccccc6)c6ccccc6)c6ccccc6)cc5)cc4)cc3)cc2)c2ccccc2)cc1`, the emission maximum is, setting by setting: (in Cc1ccccc1) 637 nm; (in ClCCl) 647 nm. Consider `CCOC(=O)CN1C(=O)C2=C(c3ccc(C#N)cc3)N(CC(=O)OCC)C(=O)C2=C1c1ccccc1`, for which the emission maximum is given as 538 nm (in CC#N), 547 nm (in CS(C)=O) and 544 nm (in Cc1ccccc1). On to `CC(C)(C)c1ccc2c(c1)c1cc(C(C)(C)C)ccc1n2-c1cc[n+]2c(c1)-c1ccccc1O[B-]2(F)F`, for which the emission maximum was determined as 473 nm (in Cc1ccccc1) and 488 nm (in O=P(c1ccccc1)(c1ccccc1)c1ccccc1Oc1ccccc1P(=O)(c1ccccc1)c1ccccc1). `CCOC(=O)c1c(-c2cc3cc4c(cc3oc2=O)OC(C)(C)CC4)nn(-c2cccc(C)c2)c1C(=O)OCC`: the emission maximum (in ClCCl) was found to be 428 nm.

For the setting “in ClCCl”, `Cc1cc2cc(C)c3c4ccccc4[nH]c3c2o1` showed an emission maximum of 338 nm. As to `COc1ccc2c(c1)CCc1c(-c3ccccc3)c3n(c1-2)[B-](F)(F)[N+]1=C2C(=C(c4ccccc4)C1=N3)CCc1ccccc12`, the emission maximum (in ClC(Cl)Cl) is listed as 734 nm. Take `O=[N+]([O-])c1ccc(-c2cn3ccc[n+]3[n-]2)cc1`: for the setting “in ClCCl”, the emission maximum is given as 556 nm.

Where the note is “in Cc1ccccc1”, `CCCCCCCCCC1(CCCCCCCCC)c2cc(C#Cc3ccc(C#Cc4ccc(N(CCCCCC)CCCCCC)cc4)cc3)ccc2-c2ccc(C#Cc3ccc(C#Cc4ccc(N(CCCCCC)CCCCCC)cc4)cc3)cc21` yielded an emission maximum of 433 nm. Turning to `CC1(C)C(/C=C/c2cc3ccc(O)cc3oc2=O)=[N+](CCCS(=O)(=O)[O-])c2ccc3c(S(=O)(=O)O)cc(S(=O)(=O)O)cc3c21`, the emission maximum is reported as 659 nm (in CCO), 625 nm (in CS(C)=O) and 643 nm (in O). `COc1ccc2c(c1)c1cc(OC)ccc1n2-c1ccc(S(=O)(=O)c2ccc(-n3c4ccc(OC)cc4c4cc(OC)ccc43)cc2)cc1`: the emission maximum (in Cc1ccccc1) is 445 nm. Take `CC(O)CC1=N/C(=C\c2cccc(N(C)C)c2)C(=O)N1C` (centres undefined): the emission maximum is listed as 585 nm (in C1CCOC1), 642 nm (in CC#N) and 506 nm (in CCCCCC). On to `CCC(C)(C)c1ccc2c(c1)C(CC)(CC)c1cc(-c3ccc(-c4ccc5c(c4)C(CC)(CC)c4cc(C(C)(C)CC)ccc4-5)cc3)ccc1-2`, for which, where the note is “in C1CCCCC1”, the emission maximum came to 381 nm. Take `COc1ccc(C2=CC(c3ccc(OC)cc3)=[O+][B-](C(C)=O)(C(C)=O)O2)cc1`: the emission maximum turned out to be 435 nm (in CC#N) and 420 nm (in ClC(Cl)(Cl)Cl). Under “in CCO”, `c1ccc(N(c2ccccc2)c2ccccc2)cc1` registered an emission maximum of 353 nm. For `CCCCC(CC)COc1ccc2nc(-c3ccc(-c4ccccc4)s3)sc2c1` (centres undefined), under “in ClCCl”, the emission maximum is reported as 423 nm. Regarding `N#CC(C#N)=Cc1ccc2c(c1)c1ccccc1n2-c1cccc2ccccc12`, the emission maximum (in ClCCl) worked out at 473 nm. `Nc1ccc(/C=C/c2ccc3ccccc3c2)cc1`: the emission maximum is reported as 450 nm (in CC#N) and 392 nm (in CCCCCC).

As for `CCCn1c2cccc3c2[c+]2c4c1cccc4n(CCC)c1cccc(c12)n3CCC`, the emission maximum (in CC#N) was 557 nm. In the case of `N#CC(C#N)=Cc1ccc2c(c1)[nH]c1c3ccccc3sc21`, the emission maximum stood at 547 nm (in C1CCOC1), 581 nm (in CN(C)C=O), 518 nm (in Cc1ccccc1) and 544 nm (in ClCCl).

In turn, `CN(C)c1ccc(-c2cc(-c3ccc(N(C)C)cc3)ncn2)cc1` gave an emission maximum (in ClCCl) of 429 nm. `c1ccc(-c2cc3cccc4cc(-c5ccccc5)c5cc(-c6cc7[b-]8c(c6)c(-c6ccccc6)cc6cccc(cc7-c7ccccc7)[n+]86)cc2[b-]5[n+]34)cc1`: the emission maximum (in C1CCCCC1) was 521 nm.

Take `CN(C)c1ccc(-c2cc(-c3cccs3)nc(-c3ccccc3)n2)cc1`: the emission maximum (in ClC(Cl)Cl) stood at 473 nm. Molecule `Cc1cc(-c2nc3c4ccccc4c4ccccc4c3n2-c2ccc(C(C)(C)C)cc2)ccc1-c1ccc(-c2c(-c3ccccc3)nc3ccccn23)cc1` yielded an emission maximum (in ClCCl) of 416 nm. Turning to `CCC1(CC)c2cc(B(c3c(C)cc(C)cc3C)c3c(C)cc(C)cc3C)ccc2-c2ccc(N(c3ccccc3)c3ccc4c(c3)C(CC)(CC)c3cc(B(c5c(C)cc(C)cc5C)c5c(C)cc(C)cc5C)ccc3-4)cc21`, the emission maximum amounted to 490 nm (in C1CCOC1); 538 nm (in CC#N); 515 nm (in CC(C)=O); 445 nm (in CCCCCC); 533 nm (in CN(C)C=O); 461 nm (in Cc1ccccc1). Further, the emission maximum (in ClC(Cl)Cl) stood at 477 nm.

On to `COc1cc2c(cc1OC)C1=C[C@H](c3ccccc3)C3(C(C#N)=C(C#N)N1CC2)c1ccccc1-c1ccccc13`, for which the emission maximum (in ClCCl) came out at 410 nm. In the case of `F[B-]1(F)n2c(cc3ccc4ccccc4c32)C(c2ccc(I)cc2)=C2C=C3CCc4ccccc4C3=[N+]21`, the emission maximum (in ClC(Cl)Cl) stood at 668 nm. Take `O=C1/C(=C2\Sc3ccc(S(=O)(=O)Cl)cc3C2=O)Sc2ccc(S(=O)(=O)Cl)cc21`: the emission maximum is, setting by setting: (in C1COCCO1) 576 nm; (in CS(C)=O) 624 nm. Where the note is “in Cc1ccccc1”, `CCCCC1(CCCC)c2cc(/C=C/c3ccc(N(c4ccccc4)c4ccccc4)cc3)ccc2-c2cc3c(cc21)-c1ccc(/C=C/c2ccc(N(c4ccccc4)c4ccccc4)cc2)cc1C3(CCCC)CCCC` registered an emission maximum of 450 nm. Molecule `Cc1ccccc1N(c1ccccc1C)c1ccc2ccc3c(N(c4ccccc4C)c4ccccc4C)ccc4ccc1c2c43` had an emission maximum (in Cc1ccccc1) of 452 nm.

Turning to `Cc1ccc(C2=C(/C=C/C(=O)OC3CC[C@@]4(C)C(=CC[C@H]5[C@@H]6CC[C@H]([C@H](C)CCCC(C)C)[C@@]6(C)CC[C@@H]54)C3)C(c3ccc(C)cc3)=[N+]3C2=Nc2c(-c4ccc(C)cc4)c(Br)c(-c4ccc(C)cc4)n2[B-]3(F)F)cc1` (some centres undefined), the emission maximum (in ClC(Cl)Cl) came out at 704 nm.

`COc1cc2c(cc1OC)C1=C[C@H](c3ccc(Cl)cc3)C3(C(C#N)=C(C#N)N1CC2)c1cc(Cl)ccc1-c1ccc(Cl)cc13`: the emission maximum (in ClCCl) is reported as 406 nm. In turn, `CC(C)(C)NC(=O)c1cccc2ccc3c4ccc(Cl)cc4c4cc(Cl)ccc4c3c12` gave an emission maximum (in ClCCl) of 415 nm.

On to `CC1(C)C(/C=C/C=C/c2cc3ccc(O)cc3oc2=O)=[N+](CCCS(=O)(=O)[O-])c2ccc(S(=O)(=O)O)cc21`, for which the emission maximum is, setting by setting: (in CCO) 654 nm; (in CS(C)=O) 655 nm; (in O) 722 nm. On to `CCN(CC)c1ccc(/C=N/c2cc3ccccc3cc2/N=C/c2ccc(N(CC)CC)cc2O)c(O)c1`, for which the emission maximum turned out to be 512 nm (in CC#N), 516 nm (in CN(C)C=O) and 539 nm (in ClCCl).

Take `CCCCCC(=O)c1cccc2sc3c(c12)P(=O)(c1ccccc1)c1ccccc1-3` (centres undefined): the emission maximum (in ClCCl) came to 427 nm. Regarding `c1cc2ccc1-c1ccc(cc1)-c1sc(c3c1OCCO3)-c1ccc(cc1)-c1ccc(cc1)-c1sc(c3c1OCCO3)-c1ccc(cc1)-c1ccc(cc1)-c1sc-2c2c1OCCO2`, for the setting “in C1CCOC1”, the emission maximum stood at 555 nm. `Cc1cc(=O)oc2cc3c(cc12)c1c2ccccc2c2ccccc2c1c1c2ccccc2c2ccccc2c31` had an emission maximum (in ClC(Cl)Cl) of 536 nm. Regarding `N#Cc1c(-n2c3ccc(Br)cc3c3cc(Br)ccc32)c(-n2c3ccc(Br)cc3c3cc(Br)ccc32)c(C#N)c(-n2c3ccc(Br)cc3c3cc(Br)ccc32)c1-n1c2ccc(Br)cc2c2cc(Br)ccc21`, the emission maximum (in Cc1ccccc1) was 546 nm. On to `CC(C)(C)c1ccc2c(c1)c1cc(C(C)(C)C)ccc1n2-c1ccc(-n2c3ccc(C(C)(C)C)cc3c3cc(C(C)(C)C)ccc32)c(C(=O)c2ccncc2)c1`, for which the emission maximum (in C1CCOC1) turned out to be 519.49 nm, the emission maximum (in CCCCCC) was 476.84 nm, the emission maximum (in Cc1ccccc1) is recorded as 508 nm and the emission maximum (in ClCCl) stood at 561.4 nm.

For the molecule `CCN(CC)c1ccc2c(c1)C(C)(C)C(=O)C=C2`, where the note is “in O”, the emission maximum is recorded as 552 nm. In the case of `N#Cc1ccc(-c2cc(-c3ccc(N4CCCC4)cc3)nc(-c3ccccc3)n2)cc1`, the emission maximum (in ClC(Cl)Cl) came to 518 nm. `COc1ccc2c(c1)c1cc(OC)ccc1n2-c1cc(Cl)c([C](c2c(Cl)cc(Cl)cc2Cl)c2c(Cl)cc(Cl)cc2Cl)c(Cl)c1`: the emission maximum (in C1CCCCC1) turned out to be 728 nm.

The record behind these values is the Deep4Chem optical property database.
